Reference: US20220274947A1, “NOVEL HETEROARYL-TRIAZOLE COMPOUNDS AS PESTICIDES” (Bayer Aktiengesellschaft, priority 2019, published 2022)

Tests used:
Format in all cases: in vivo
Ctenocephalides felis [1] = test: Ctenocephalides felis oral test (CTECFE Oral); settings: 48 h, read-out: activity (mortality)
How it was run: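 About 20 unfed adult cat fleas fed through parafilm on cattle blood containing compound (DMSO concentrate diluted in blood to the desired concentration). Blood held at 37 °C, fleas at room temperature. Mortality (%) scored after 2 days.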

Rhipicephalus microplus [2] = test: Rhipicephalus (Boophilus) microplus dip test (BOOPMI Dip); settings: 168 h, application rate 100 ppm, engorged adult female ticks, after 7 days, read-out: activity (efficacy: 100% means all eggs are infertile)
Method: Rhipicephalus (Boophilus) Microplus—Dip Test (BOOPMI Dip)
Test Animal: cattle ticks (Rhipicephalus microplus) strain parkhurst, SP-resistant Solvent: dimethyl sulfoxide
To produce a suitable preparation of active compound, 10 mg of active compound are dissolved in 0.5 mL solvent, and the concentrate is diluted with water to the desired concentration.
This compound solution is pipetted into tubes. 8-10 engorged, adult, female cattle ticks (Rhipicephalus microplus) are placed in perforated tubes. These tubes are immersed in the aqueous compound solution until the ticks are completely moistened. After the liquid has drained off, the ticks are transferred to a filter paper in a plastic tray and stored in a climate chamber.
After 7 days egg deposition of fertile eggs is monitored. Eggs where fertility is not visible are stored in a climate chamber till hatching after about 42 days. An efficacy of 100% means all eggs are infertile; 0% means all eggs are fertile.

Diabrotica balteata = Diabrotica balteata spray test; settings: 168 h, wheat seeds, larvae, after 7 days, read-out: activity (efficacy: 100% means all seedlings have grown up like in the untreated, uninfected control); for pest or weed control at 32 µg/disc, 100 g/ha: application rate 100 g/ha (=32 μg/well); for pest or weed control at 160 µg/disc, 500 g/ha: application rate 500 g/ha (=160 μg/well)
How it was run: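 Wheat seedlings, germinated 1 day on agar, were sprayed with compound in acetone/DMF diluted in water containing emulsifier, then infested with 10-20 Diabrotica balteata larvae. After 7 days efficacy in % was scored: 100% means seedlings grew like the untreated, uninfected control; 0% means none grew.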

Nezara viridula = Nezara viridula spray test; settings: in Hordeum vulgare, 96 h, barley plants, larvae, after 4 days; for mortality at 500 g/ha: application rate 500 g/ha
How it was run: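 Barley plants infested with N. viridula larvae were sprayed with compound in acetone/DMF diluted with water containing 1000 ppm alkylarylpolyglycol ether emulsifier. Mortality (%) was scored after 4 days; 100% means all bugs killed, 0% none.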

Rhipicephalus sanguineus = Rhipicephalus sanguineus in-vitro contact test, adult brown dog ticks (RHIPSA Cont); settings: 48 h, after 48 hours, read-out: activity (efficacy: 100% means all ticks are dead or moribund); for pest or weed control at 1 µg/cm2, 100 g/ha: application rate 1 μg/cm^2 (=100 g/ha); for pest or weed control at 5 µg/cm2, 500 g/ha: application rate 5 μg/cm^2 (=500 g/ha)
How it was run: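 Compound in acetone was coated onto the inner walls of glass tubes and dried by rotation before adult brown dog ticks were exposed. Efficacy was scored at 48 h. Ticks unable to climb away from a 45–50 °C heating plate within 5 min counted as dead or moribund.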

Rhipicephalus microplus [3] = test: Rhipicephalus (Boophilus) microplus injection test (BOOPMI Inj); settings: 168 h, injection into adult engorged female ticks, egg deposition after 7 days, read-out: activity (efficacy: 100% means all eggs are infertile); for pest or weed control at 0.004 mg: application rate 4 μg/tick; for pest or weed control at 0.02 mg: application rate 20 μg/tick
How it was run: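 Five engorged adult female R. microplus ticks injected into the abdomen with 1 μL of compound diluted in DMSO, then kept in a climate chamber. Fertile egg deposition checked after 7 days; eggs without visible fertility held until hatching at about 42 days. Efficacy: 100% = all eggs infertile, 0% = all fertile.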

Rhipicephalus microplus [4] = test: Rhipicephalus (Boophilus) microplus in-vitro contact test, larval cattle tick, strain Parkhurst (BOOPMI Cont); settings: application rate 5 μg/cm^2 (=500 g/ha), tick larvae, after 48 hours, read-out: activity (efficacy: 100% means all larvae are dead or moribund)
How it was run: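 Acetone solutions dried onto glass tube walls (900 ppm giving 5 μg/cm^2); 20-50 pyrethroid-resistant Parkhurst larvae added per tube and held 48 h at 27° C., 85% relative humidity. Efficacy scored by negative geotaxis as % dead or moribund larvae.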

Spodoptera frugiperda = Spodoptera frugiperda spray test; settings: in Zea mays, 168 h, read-out: activity (mortality)
How it was run: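 Maize leaf sections were sprayed with compound formulated in acetone/DMF and diluted in water containing 1000 ppm emulsifier. Dried leaves were infested with fall armyworm larvae, and percent mortality was scored after 7 days.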

Myzus persicae [5] = test: Myzus persicae oral test; settings: 120 h, read-out: activity (mortality)
How it was run: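 Percent mortality was recorded at day 5, where 0% means no aphids killed. Compound prepared from an acetone concentrate diluted in water and combined with IPL41 medium containing sugar was offered to mixed-stage green peach aphids, which sucked it through a parafilm seal.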

Ctenocephalides felis [6] = test: Ctenocephalides felis in-vitro contact test, adult cat flea (CTECFE Cont); settings: application rate 5 μg/cm^2 (=500 g/ha), adult cat fleas, after 48 hours, read-out: activity (efficacy: 100% means all fleas are dead or moribund)
How it was run: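 Acetone solutions coated on glass tube inner walls (900 ppm giving 5 μg/cm^2), then 5-10 adult fleas added and held 48 h at room temperature. Fleas unable to escape a 45-50° C. heating plate within 5 min scored dead or moribund; efficacy = % dead/moribund.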

[7] = tested on: Aedes aegypti strain MONHEIM; test: Aedes aegypti test (AEDSAE surface treatment & contact assay); settings: surface concentration 20 mg/m^2, glazed tile, exposure 30 minutes, 24 hours after contact, read-out: efficacy (mortality)
How it was run: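 Compound dissolved in acetone (2 mg/ml) with 2000 ppm rapeseed oil methyl ester, pipetted onto glazed tile and dried. Adult mosquitoes exposed on the surface for 30 min; percent mortality scored 24 h after contact.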

Nilaparvata lugens = Nilaparvata lugens spray test; settings: 96 h, rice plants, after 4 days; for mortality at 100 g/ha: application rate 100 g/ha; for mortality at 500 g/ha: application rate 500 g/ha
Method: Nilaparvata lugens—Spray Test Solvent: 78.0 parts by weight of acetone • • 1.5 parts by weight of dimethylformamide Emulsifier: alkylarylpolyglycol ether
To produce a suitable preparation of active compound, 1 part by weight of active compound is mixed with the stated amount of solvents and is diluted with water, containing an emulsifier concentration of 1000 ppm, to the desired concentration. Further test concentrations are prepared by dilution with emulsifier containing water.
Rice plants (Oryza sativa) are sprayed with a preparation of the active ingredient of the desired concentration and the plants are infested with the brown planthopper (Nilaparvata lugens).
After 4 days mortality in % is determined. 100% means all planthoppers have been killed and 0% means none of the planthoppers have been killed.

Myzus persicae [8] = test: Myzus persicae spray test; settings: in Brassica rapa, foliar, 120 h, read-out: activity (mortality), application rate 100 g/ha, spray, Chinese cabbage leaf disks, after 5 days
How it was run: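 Compound in acetone/DMF solvent diluted in water with 1000 ppm alkylarylpolyglycol ether emulsifier, sprayed onto Chinese cabbage leaf disks infested with all instars of Myzus persicae. Mortality (%) scored after 5 days.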

SMILES | mortality at 100 ppm (Ctenocephalides felis [1]) | pest or weed control at 100 ppm (Rhipicephalus microplus [2]) | pest or weed control at 32 µg/disc, 100 g/ha (Diabrotica balteata) | pest or weed control at 160 µg/disc, 500 g/ha (Diabrotica balteata) | mortality at 500 g/ha (Nezara viridula) | pest or weed control at 1 µg/cm2, 100 g/ha (Rhipicephalus sanguineus) | pest or weed control at 0.004 mg (Rhipicephalus microplus [3]) | pest or weed control at 0.02 mg (Rhipicephalus microplus [3]) | pest or weed control at 5 µg/cm2 (Rhipicephalus microplus [4]) | mortality at 100 g/ha (Spodoptera frugiperda) | mortality at 500 g/ha (Spodoptera frugiperda) | mortality at 4 ppm (Myzus persicae [5]) | pest or weed control at 5 µg/cm2 (Ctenocephalides felis [6]) | mortality at 20 mg/m2 [7] | pest or weed control at 5 µg/cm2, 500 g/ha (Rhipicephalus sanguineus) | mortality at 100 g/ha (Nilaparvata lugens) | mortality at 500 g/ha (Nilaparvata lugens) | mortality at 100 g/ha (Nezara viridula; application rate 100 g/ha) | mortality at 100 g/ha (Myzus persicae [8])
CC(C)c1nc([C@H](C)NC(=O)c2cc(C(F)(F)F)cc(C(F)(F)F)c2)n(-c2ccc(C#N)cn2)n1 [I-7] | 100% | 100% | 100% | 100% | 100% | 100% | 100% | 100% | 100% | 100% | 83% | 100% | – | – | – | – | – | – | –
CC(C)c1nc([C@H](C)NC(=O)c2cc(Cl)cc(C(F)(F)F)c2)n(-c2ccc(C#N)cn2)n1 [I-8] | – | 100% | 100% | 100% | – | – | 100% | 100% | 80% | 100% | 100% | – | 80% | 80 to 100% | – | – | – | – | –
CC(C)c1nc([C@H](C)NC(=O)c2cc(Br)cc(OC(F)(F)F)c2)n(-c2ccc(C#N)cn2)n1 [I-26] | – | – | 100% | – | – | 80% | 100% | 100% | 100% | 100% | – | – | – | 80 to 100% | 100% | 90% | – | – | –
C[C@H](NC(=O)c1cc(Cl)cc(C(F)(F)C(F)(F)F)c1)c1nc(C2CC2)nn1-c1ccc(C#N)cn1 [I-43] | 100% | – | 100% | – | – | – | 100% | – | 100% | 100% | – | – | – | – | – | 90% | – | – | –
C[C@H](NC(=O)c1cc(C(F)(F)F)cc(C(F)(F)F)c1)c1ncnn1-c1ccc(S(C)(=O)=O)cn1 [II-44] | – | – | 100% | 100% | 100% | 100% | 100% | 100% | 100% | 100% | 100% | 100% | – | – | 100% | – | 90% | – | –
C[C@H](NC(=O)c1cc(C(F)(F)F)cc(C(F)(F)F)c1)c1ncnn1-c1ccc(C(=O)N(C)CC(F)(F)F)cn1 [II-74] | – | – | 100% | 100% | 100% | 100% | 100% | 100% | 100% | 100% | 100% | 100% | 100% | – | 100% | – | 90% | – | –
Cc1nc([C@H](C)NC(=O)c2cc(C(F)(F)F)cc(C(F)(F)F)c2)n(-c2ccc(C(=O)N(C)CCN(C)C)cn2)n1 [II-95] | 100% | – | – | – | – | 100% | 80% | – | 90% | – | – | 90% | – | – | – | 90% | – | 100% | –
Cc1nc([C@H](C)NC(=O)c2cc(Cl)cc(C(F)(F)F)c2)n(-c2cnc(C#N)cn2)n1 [II-104] | 100% | – | – | – | – | 100% | 100% | – | 100% | 100% | – | – | 100% | – | 100% | 90% | – | – | 100%
